For the assay, the system named is Glo-Response ARE-luc2P HEK293 cell line. The experiment in a line: ARE luciferase reporter cell-based assay.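 Further: luciferase signal tracks Nrf2 activation of the ARE once compounds disrupt KEAP1-Nrf2 binding, read with One-Glo reagent, DMSO serving as low control.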 To be noted: Homo sapiens, HEK293, 24 h, average of results obtained.

Molecule `Cc1ccc([C@@H](c2cc(OC(F)F)c3c(c2)nnn3C)C(C)(C)C(=O)O)cc1CN1CC2(CCOCC2)Oc2ncccc2S1(=O)=O` (single isomer, unassigned) [Example 426] came in with a concentration for a half-maximal effect (EC50) of 0.9 nM.
The value for `Cc1ccc(C(CC(=O)O)c2ccc3c(nnn3C3CC3)c2C)cc1CN1CC2(CC2)N(C)c2ncccc2S1(=O)=O` (racemic) [Example 224, (R/S)-3-(1-Cyclopropyl-4-methyl-1H-benzo[d][1,2,3]triazol-5-yl)-3-(4-methyl-3-((5′-methyl-1′,1′-dioxido-5′H-spiro[cyclopropane-1,4′-pyrido[2,3-f][1,2,5]thiadiazepin]-2′(3′H)-yl)methyl)phenyl)propanoic Acid] was 20 nM.
On to `CCn1nnc2c(C)c(C(CC(=O)O)c3ccc(C)c(CN4C[C@H]5CCCCN5c5ncccc5S4(=O)=O)c3)ccc21` (mixture of isomers) [Example 144, (R/S)-3-(3-(((*R)-5,5-Dioxido-7,7a,8,9,10,11-hexahydro-6H-dipyrido[2,1-d:2′,3′-f][1,2,5]thiadiazepin-6-yl)methyl)-4-methylphenyl)-3-(1-ethyl-4-methyl-1H-benzo[d][1,2,3]triazol-5-yl)propanoic Acid], for which the half-maximal effective concentration (EC50) turned out to be 3.1 nM.
The value for `CCn1nnc2c(C)c([C@@H](CC(=O)O)c3ccc(C)c(CN4C[C@H]5CCCCN5c5ncccc5S4(=O)=O)c3)ccc21` (single isomer, unassigned) [Example 145, (*S)-3-(3-(((*R)-5,5-Dioxido-7,7a,8,9,10,11-hexahydro-6H-dipyrido[2,1-d:2′,3′-f][1,2,5]thiadiazepin-6-yl)methyl)-4-methylphenyl)-3-(1-ethyl-4-methyl-1H-benzo[d][1,2,3]triazol-5-yl)propanoic Acid] was 1.1 nM; that for `Cc1ccc([C@H](CC(=O)O)c2ccn3c(C(F)(F)F)nnc3c2C)nc1CN1C[C@H]2CCCCN2c2ncc(Cl)cc2S1(=O)=O` (relative stereo) [Example 522, (*R)-3-(6-(((*R)-3-Chloro-5,5-dioxido-7,7a,8,9,10,11-hexahydro-6H-dipyrido[2,1-d:2′,3′-f][1,2,5]thiadiazepin-6-yl)methyl)-5-methylpyridin-2-yl)-3-(8-methyl-3-(trifluoromethyl)-[1,2,4]triazolo[4,3-a]pyridin-7-yl)propanoic Acid] was 5.06 nM; that for `CCn1nnc2c(C)c([C@@H](CC(=O)O)c3ccc(C)c(CN4C[C@H]5COCCN5c5ncccc5S4(=O)=O)c3)ccc21` (single isomer, unassigned) [Example 136, (*S)-3-(3-(((*S)-5,5-Dioxido-7a,8,10,11-tetrahydro-[1,4]oxazino[3,4-d]pyrido[2,3-f][1,2,5]thiadiazepin-6(7H)-yl)methyl)-4-methylphenyl)-3-(1-ethyl-4-methyl-1H-benzo[d][1,2,3]triazol-5-yl)propanoic Acid] was 8.3 nM.
Turning to `Cc1ccc([C@H](CC(=O)O)c2ccc3c(nnn3CC3CC3)c2C)cc1CN1CC2(CC2)N(C)c2ncccc2S1(=O)=O` (single isomer, unassigned) [Example 78, (*S)-3-(1-(Cyclopropylmethyl)-4-methyl-1H-benzo[d][1,2,3]triazol-5-yl)-3-(4-methyl-3-((5′-methyl-1′,1′-dioxido-5′H-spiro[cyclopropane-1,4′-pyrido[2,3-f][1,2,5]thiadiazepin]-2′(3′H)-yl)methyl)phenyl)propanoic Acid], the EC50 stood at 8.9 nM.
The value for `Cc1ccc([C@H](c2cc(OC(F)F)c3c(c2)nnn3C)C(C)(C)C(=O)O)cc1CN1CC2(CCOCC2)Oc2ncccc2S1(=O)=O` (single isomer, unassigned) [Example 427, (R*)-3-(7-(difluoromethoxy)-1-methyl-1H-benzo[d][1,2,3]triazol-5-yl)-3-(3-((1′,1′-dioxido-2,3,5,6-tetrahydrospiro[pyran-4,4′-pyrido[2,3-b][1,4,5]oxathiazepin]-2′(3′H)-yl)methyl)-4-methylphenyl)-2,2-dimethylpropanoic Acid] was 293 nM; that for `Cc1ccc([C@H](CC(=O)O)c2ccn3c(C(F)(F)F)nnc3c2C)cc1CN1CC2(CCOCC2)Oc2ccc(F)cc2S1(=O)=O` (single isomer, unassigned) [Example 415, (*S)-3-(3-((8-fluoro-1,1-dioxido-2′,3′,5′,6′-tetrahydrospiro[benzo[b][1,4,5]oxathiazepine-4,4′-pyran]-2(3H)-yl)methyl)-4-methylphenyl)-3-(8-methyl-3-(trifluoromethyl)-[1,2,4]triazolo[4,3-a]pyridin-7-yl)propanoic Acid] was 5.1 nM; that for `Cc1ccc([C@@H](CC(=O)O)c2ccn3c(C(F)(F)F)nnc3c2C)cc1CN1C[C@H]2COCCN2c2ncccc2S1(=O)=O` (single isomer, unassigned) [Example 263, (*R)-3-(3-(((*S)-5,5-Dioxido-7a,8,10,11-tetrahydro-[1,4]oxazino[3,4-d]pyrido[2,3-f][1,2,5]thiadiazepin-6(7H)-yl)methyl)-4-methylphenyl)-3-(8-methyl-3-(trifluoromethyl)-[1,2,4]triazolo[4,3-a]pyridin-7-yl)propanoic Acid] was 1160 nM.
Consider `Cc1cc2cc([C@H](c3ccc(C)c(CN4CC5(CCOCC5)Oc5nc(OCCN6CCCC6)c(C)cc5S4(=O)=O)c3)C(C)(C)C(=O)O)n(C)c2nn1` (single isomer, unassigned) [Example 347, (*R)-3-(3,7-Dimethyl-7H-pyrrolo[2,3-c]pyridazine-6-yl)-2,2-dimethyl-3-(4-methyl-3-((8′-methyl-1′,1′-dioxido-7′-(2-(pyrrolidine-1-yl)-ethoxy)2,3,5,6-tetrahydrospiro[pyran-4,4′-pyrido[2,3-b][1,4,5]oxathiazepin]-2′,(3′H)-yl)methyl)phenyl)propanoic Acid], for which the EC50 was 3580 nM.
The result for `Cc1ccc([C@H](CC(=O)O)c2ccn3c(C(F)(F)F)nnc3c2C)cc1CN1C[C@@H]2CCCCN2c2ncc(C(F)(F)F)cc2S1(=O)=O` (relative stereo) [Example 198, (*S)-3-(3-(((*S)-5,5-Dioxido-3-(trifluoromethyl)-7,7a,8,9,10,11-hexahydro-6H-dipyrido[2,1-d:2′,3′-f][1,2,5]thiadiazepin-6-yl)methyl)-4-methylphenyl)-3-(8-methyl-3-(trifluoromethyl)-[1,2,4]triazolo[4,3-a]pyridin-7-yl)propanoic Acid] reads 5.3 nM.
The result for `CCn1nnc2c(C)c(C(CC(=O)O)c3ccc(C)c(CN4C[C@@H]5CCCN5c5ccccc5S4(=O)=O)c3)ccc21` (mixture of isomers) [Example 147, (R/S)-3-(3-(((S)-5,5-Dioxido-7a,8,9,10-tetrahydrobenzo[f]pyrrolo[2,1-d][1,2,5]thiadiazepin-6(7H)-yl)methyl)-4-methylphenyl)-3-(1-ethyl-4-methyl-1H-benzo[d][1,2,3]triazol-5-yl)propanoic Acid] reads 19 nM.
The result for `Cc1ccc([C@@H](c2ccn3c(C(F)(F)F)nnc3c2C)C(C)(C)C(=O)O)cc1CN1CC2(CCNCC2)Oc2ncccc2S1(=O)=O` (single isomer, unassigned) [Example 336, (*S)-3-(3-((1′,1′-Dioxidospiro[piperidine-4,4′-pyrido[2,3-b][1,4,5]oxathiazepin]-2′(3′H)-yl)methyl)-4-methylphenyl)-2,2-dimethyl-3-(8-methyl-3-(trifluoromethyl)-[1,2,4]triazolo[4,3-a]pyridin-7-yl)propanoic Acid] reads 1830 nM; that for `Cc1ccc([C@H](CC(=O)O)c2ccn3c(C(F)(F)F)nnc3c2C)cc1CN1CC2(CC2)Oc2nc(Cl)ccc2S1(=O)=O` (single isomer, unassigned) [Example 100, (*S)-3-(3-((7′-Chloro-1′,1′-dioxidospiro(cyclopropane-1.4′-pyrido[2,3-b][1,4,5]oxathiazepin]-2′(3′H)-yl)methyl)-4-methylphenyl)-3-(8-methyl-3-(trifluoromethyl)-[1,2,4]triazolo[4,3-a]pyridin-7-yl)propanoic Acid], 13.3 nM; that for `Cc1cc2cc([C@@H](c3ccc(C)c(CN4CC5(CC5)Oc5nc(OCCN6CCCCC6)c(C)cc5S4(=O)=O)c3)C(C)(C)C(=O)O)n(C)c2nn1` (single isomer, unassigned) [Example 350, (*S)-3-(3,7-Dimethyl-7H-pyrrolo[2,3-c]pyridazine-6-yl)-2,2-dimethyl-3-(4-methyl-3-((8′-methyl-1′,1′-dioxido-7′-(2-(piperidine-1-yl)-ethoxy)spiro[cyclopropane-1,4′-pyrido[2,3-b][1,4,5]oxathiazepin]-2′,(3′H)-yl)methyl)phenyl)propanoic Acid], 23.4 nM.
Regarding `CCn1nnc2c(C)c([C@H](CC(=O)O)c3ccc(C)c(CN4C[C@H]5CCCCN5c5ncccc5S4(=O)=O)c3)ccc21` (single isomer, unassigned) [Example 146, (*R)-3-(3-(((*R)-5,5-Dioxido-7,7a,8,9,10,11-hexahydro-6H-dipyrido[2,1-d:2′,3′-f][1,2,5]thiadiazepin-6-yl)methyl)-4-methylphenyl)-3-(1-ethyl-4-methyl-1H-benzo[d][1,2,3]triazol-5-yl)propanoic Acid], the response was half-maximal at 4.2 nM (EC50).
The value for `CCc1c([C@@H](CC(=O)O)c2ccc(C)c(CN3C[C@@H]4CCCCN4c4ncc(C)cc4S3(=O)=O)c2)ccn2c(C(F)(F)F)nnc12` (relative stereo) [Example 517, (*S)-3-(8-Ethyl-3-(trifluoromethyl)-[1,2,4]triazolo[4,3-a]pyridin-7-yl)-3-(4-methyl-3-(((*S)-3-methyl-5,5-dioxido-7,7a,8,9,10,11-hexahydro-6H-dipyrido[2,1-d:2′,3′-f][1,2,5]thiadiazepin-6-yl)methyl)phenyl)propanoic Acid] was 10.3 nM.
The value for `Cc1ncc(C(c2ccn3c(C(F)(F)F)nnc3c2C)C(C)(C)C(=O)O)cc1CN1CC2(CCOCC2)Oc2ncccc2S1(=O)=O` (racemic) [Example 569, (R/S)-3-(5-((1′,1′-Dioxido-2,3,5,6-tetrahydrospiro[pyran-4,4′-pyrido[2,3-b][1,4,5]oxathiazepin]-2′(3′H)-yl)methyl)-6-methylpyridin-3-yl)-2,2-dimethyl-3-(8-methyl-3-(trifluoromethyl)-[1,2,4]triazolo[4,3-a]pyridin-7-yl)propanoic Acid] was 1370 nM.
